From article PMC6934184, “Selective DNA-PKcs inhibition extends the therapeutic index of localized radiotherapy and chemotherapy” (The Journal of Clinical Investigation, 2019)

Target: T1, PASK (Homo sapiens, UniProt Q96RG2)
T1 construct: purchased Thermo Fisher Scientific (Life Technologies) SelectScreen
Experiment: SelectScreen Z'LYTE
Format: biochemical
Summary of the method: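 Percent values come from Thermo SelectScreen profiling of NU5455, combining activity and binding assays. CSF1R was run in Z'LYTE format at Km app ATP, and CAMK1 in Adapta format with ATP listed at 10.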

T1 sequence (Q96RG2 whole entry): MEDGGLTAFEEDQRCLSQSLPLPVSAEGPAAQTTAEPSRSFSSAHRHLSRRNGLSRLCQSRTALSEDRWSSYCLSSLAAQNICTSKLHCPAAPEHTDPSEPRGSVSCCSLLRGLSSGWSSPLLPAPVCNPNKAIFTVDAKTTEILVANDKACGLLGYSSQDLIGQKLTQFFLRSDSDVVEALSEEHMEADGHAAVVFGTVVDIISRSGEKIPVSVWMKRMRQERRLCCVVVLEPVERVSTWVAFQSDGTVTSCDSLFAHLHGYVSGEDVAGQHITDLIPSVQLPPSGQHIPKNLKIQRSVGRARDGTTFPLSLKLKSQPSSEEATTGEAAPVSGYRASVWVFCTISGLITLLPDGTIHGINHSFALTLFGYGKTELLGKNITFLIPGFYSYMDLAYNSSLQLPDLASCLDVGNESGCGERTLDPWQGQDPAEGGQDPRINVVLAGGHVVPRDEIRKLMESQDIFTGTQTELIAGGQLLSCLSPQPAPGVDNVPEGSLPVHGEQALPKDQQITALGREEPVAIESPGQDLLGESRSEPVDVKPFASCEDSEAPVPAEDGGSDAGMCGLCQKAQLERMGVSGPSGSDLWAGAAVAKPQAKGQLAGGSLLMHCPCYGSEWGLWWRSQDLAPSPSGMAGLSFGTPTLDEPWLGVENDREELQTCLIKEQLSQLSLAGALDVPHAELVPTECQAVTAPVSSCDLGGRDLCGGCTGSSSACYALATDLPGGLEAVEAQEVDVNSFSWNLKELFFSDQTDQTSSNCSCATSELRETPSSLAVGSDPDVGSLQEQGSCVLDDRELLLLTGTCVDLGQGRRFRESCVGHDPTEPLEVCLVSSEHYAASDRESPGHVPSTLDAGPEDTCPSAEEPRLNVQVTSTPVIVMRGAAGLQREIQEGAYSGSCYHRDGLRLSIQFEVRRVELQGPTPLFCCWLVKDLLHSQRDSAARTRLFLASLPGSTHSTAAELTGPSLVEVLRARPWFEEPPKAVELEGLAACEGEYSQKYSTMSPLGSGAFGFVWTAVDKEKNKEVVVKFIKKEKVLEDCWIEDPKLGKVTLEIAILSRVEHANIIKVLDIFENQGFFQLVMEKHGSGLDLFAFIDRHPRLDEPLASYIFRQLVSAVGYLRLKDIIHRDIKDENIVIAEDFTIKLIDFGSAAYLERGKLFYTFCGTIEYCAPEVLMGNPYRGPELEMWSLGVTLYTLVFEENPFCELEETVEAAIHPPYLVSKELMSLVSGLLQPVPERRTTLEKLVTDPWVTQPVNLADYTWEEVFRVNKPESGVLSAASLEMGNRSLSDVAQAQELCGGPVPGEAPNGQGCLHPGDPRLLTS

## CN(C(=O)CN1CCOCC1)c1ccc2sc3c(-c4cccc5c(=O)cc(N6CC7CCC(C6)O7)oc45)cccc3c2c1 [NU5455]
  inhibition at 1 µM: 2.3%
